Data from doi:10.1101/283176v2 (biorxiv, 2018).

Biological target: LeuT (Aquifex aeolicus, UniProt O67854)
Assay: scintillation proximity assay, displacement of [3H]leucine by alanine
Settings: Na+ at its K0.5 (11.2 mM), pH 7.4 binding buffer, DDM

KI-ala: 2560 ± 510 nM
SMILES: C[C@H](N)C(=O)O [alanine]
